Data as given in PubChem BioAssay (NCI).
Where “and” joins values, the source holds several entries; their conditions need not be identical. Identical values can stand only once.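 In this assay, cells in 96-well plates receive the compound at five concentrations for 48 hours. Endpoints are linearly interpolated between the surrounding concentrations. GI50 = concentration required for 50% inhibition of growth. TGI: concentration producing complete growth inhibition.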

Experiments:
Assay in all cases: growth of human tumour cells (NCI), 48 h
SK-MEL-28 melanoma = test system: SK-MEL-28 melanoma
KM12 colon = test system: KM12 colon
HL-60(TB) leukemia = test system: HL-60(TB) leukemia
DU-145 prostate = test system: DU-145 prostate
UO-31 renal = test system: UO-31 renal
SK-MEL-5 melanoma = test system: SK-MEL-5 melanoma
OVCAR-3 ovarian = test system: OVCAR-3 ovarian
MDA-MB-231 breast = test system: MDA-MB-231 breast
786-0 renal = test system: 786-0 renal
CCRF-CEM leukemia = test system: CCRF-CEM leukemia

Structure (SMILES)	GI50 (SK-MEL-28 melanoma)	TGI (SK-MEL-28 melanoma) [µM]	GI50 (KM12 colon)	TGI (KM12 colon) [µM]	GI50 (HL-60(TB) leukemia)	TGI (HL-60(TB) leukemia) [µM]	GI50 (DU-145 prostate)	TGI (DU-145 prostate) [µM]	GI50 (UO-31 renal)	TGI (UO-31 renal)	GI50 (SK-MEL-5 melanoma)	TGI (SK-MEL-5 melanoma) [µM]	GI50 (OVCAR-3 ovarian)	TGI (OVCAR-3 ovarian) [µM]	GI50 (MDA-MB-231 breast)	TGI (MDA-MB-231 breast) [µM]	GI50 (786-0 renal)	TGI (786-0 renal) [µM]	GI50 (CCRF-CEM leukemia)	TGI (CCRF-CEM leukemia) [µM]
Nc1nccc(-c2c(-c3ccc(F)cc3)ncn2C2CCNCC2)n1	10.2 µM and 8.41 µM	> 25	4.26 µM and 4.01 µM	> 25	> 25 µM and 6.47 µM	> 25	7.77 µM and 3.96 µM	> 25	10.9 µM and 3.04 µM	> 25 µM and 17.4 µM	1.74 µM and 4.23 µM	> 19.9	6.78 µM and 4.93 µM	> 25	> 25 µM and 3.97 µM	> 25	16 µM and 5.59 µM	> 25	13.2 µM and 4.52 µM	> 25
CC(=O)O[C@H]1C(=O)[C@@]2(C)C(C(OC(=O)c3ccccc3)[C@]3(O)C[C@H](OC(=O)C(OC(=O)CCCC(=O)NCCCN(C)C)C(NC(=O)c4ccccc4)c4ccccc4)C(C)=C1C3(C)C)C1(OC(C)=O)COC1C[C@@H]2O (some centres undefined)		55.5		3.19		0.0832		0.0666		64 µM		18.6		< 0.01		13.8		11		9.58
OCCN1CCN(CCCN2c3ccccc3Sc3ccc(Cl)cc32)CC1	1.84 µM	3.31	1.91 µM	3.69	2.06 µM	4.16	5.04 µM	16.2	4.38 µM	18.3 µM	1.65 µM	3	2.59 µM	6.73	1.99 µM	4.78	1.87 µM	3.98	2.2 µM	6.24
CCSCC1CC(O)(c2ccccc2)CC(c2ccc(F)cc2)O1 (centres undefined)	2.15 µM	4.44	1.88 µM	3.67	2.19 µM	4.56	2.66 µM	7.17	1.4 µM	5.1 µM	1.74 µM	3.16	1.83 µM	3.4	1.98 µM	4.39	2.02 µM	4.53	1.86 µM	5.91
CCCCCCCCCCCCOC1C(CNC(=O)C2OC3OC(C)(C)OC3C2NC(=O)Nc2ccc(CC(=O)OC)cc2)OC2OC(C)(C)OC21 (centres undefined)	> 100 µM	> 100	> 100 µM	> 100		> 47.9	> 77 µM	> 100	> 100 µM	> 100 µM	> 100 µM	> 100	> 100 µM	> 100	8.43 µM	> 82	> 100 µM	> 100	> 19.6 µM	> 100
Cc1cc(O)c(=O)cc2c1C[C@H]1CC(C)(C)/C=C/C[C@]3(C)Oc4cc(=O)c(O)cc(C)c4C[C@H]3C[C@H](O)[C@@]1(C)O2	0.0423 µM	19.9	< 0.01 µM	> 100	0.0249 µM	0.102	< 0.01 µM	> 75.9	0.0213 µM	0.198 µM	0.0166 µM	0.0985	< 0.01 µM	19.6	0.0322 µM	50.3	0.0327 µM	15.4	0.0163 µM	1.21
Cc1cccc(N(C)C(=O)[C@@H]2[C@H](O)CCN2c2nc(C)cc(C(F)(F)F)c2C#N)c1	24.3 µM	> 100	28.2 µM	> 100	3.56 µM	17.4	25.1 µM	> 100	14.8 µM	29.5 µM	15.6 µM	30.6	15.2 µM	81.3	19.3 µM	46	21.6 µM	66.9	25.8 µM	> 100
O=c1c2c(=NCCN3CCCC3)cc3c(=O)n(CCCN4CCOCC4)c(=O)c4c(-c5ccc(CN6CCCC6)cc5)cc(c(O)n1CCCN1CCOCC1)c2c4-3	0.156 µM	0.557	0.0661 µM	0.841	0.231 µM	1.64	0.103 µM	1.23	0.038 µM	0.231 µM	0.133 µM	0.3	0.0244 µM	0.109	0.0397 µM	0.384	0.0416 µM	0.383	0.0673 µM	1.05
CCC(C)[C@H]1O[C@]2(CC[C@@H]1C)C[C@@H]1C[C@@H](C/C=C(\C)[C@@H](OC3C[C@H](OC)C(O[C@H]4C[C@H](OC)[C@@H](O)[C@H](C)O4)[C@H](C)O3)[C@@H](C)/C=C/C=C3\CO[C@@H]4[C@H](O)C(C)=C[C@@H](C(=O)O1)[C@]34O)O2 (some centres undefined)	2.67 µM	7.21	3.77 µM	14	2.18 µM	5.03	5.59 µM	18.1	1.85 µM	10.2 µM	1.49 µM	2.82	3.12 µM	9.3	2.31 µM	6.85	3.66 µM	14	4 µM	21.2
C/C(=N\NC(=S)N1CCCCC1)c1ccccn1	1.13 µM	6.66	0.0634 µM	4.72	0.0527 µM	2.64	0.236 µM	5.67	< 0.0123 µM	2.29 µM	0.0694 µM	0.87	< 0.01 µM	1.69	0.123 µM	6.33	0.0517 µM	2.39	< 0.0143 µM	> 25.1
C=C1CC[C@@H]2[C@](C)(COC(C)=O)[C@H](OC(C)=O)CC[C@@]2(C)[C@@H]1CC(Nc1ccc(S(=O)(=O)NC(C)=O)cc1)C1=CCOC1=O (some centres undefined)	3.69 µM	13.2	5.11 µM	15.9	2.45 µM	12	2.8 µM	9.74	3.71 µM	13.2 µM	3.22 µM	11.5	1.49 µM	3.02	3.32 µM	11.6	2.44 µM	7.98	1.93 µM	6.26
CCN(CC)c1ccc(/C=N/NC(=O)CSc2nc3ccccc3c(=O)n2CCc2ccc(S(N)(=O)=O)cc2)c(O)c1	2.69 µM	> 100	1.56 µM	> 100	1.71 µM	6.44	1.82 µM	> 100	2.86 µM	> 100 µM	2.49 µM	14.9	0.296 µM	> 100	2.27 µM	50.2	4.46 µM	> 100	0.326 µM	4.35
COc1cc(Nc2nc3cc(N)cc(N)c3nc2-c2ccccc2)cc(OC)c1OC	1.45 µM	20.7	10.6 µM	29.5	6.65 µM	23.3	21.9 µM	74	15.1 µM	90.3 µM	13 µM	27.8	14.2 µM	37.1	11.1 µM	29.2	14.6 µM	40.3	4.4 µM	42
COc1ccc2c(c1OC)C[C@@H]1c3c(cc4c(c3-2)OCO4)CCN1C		> 100		> 100		27.2		> 100		45.4 µM		38.1		> 100		> 100		63.9		51.6
CC(C)(CN1CCCCC1)C(=O)/C=C/c1ccc(/C=C/C(=O)C(C)(C)CN2CCCCC2)cc1		2.65		1.35		0.714		5.05		2.54 µM		1.98		1.17		0.476		2.79		0.234
CS(=O)(=O)Nc1cncc(-c2ccc3ncnc(Nc4ccc(F)c(Cl)c4)c3c2)c1	2.65 µM	15.6	3.49 µM	13.3	2.08 µM	9.62	2.25 µM	15.2	1.76 µM	13.8 µM	1.83 µM	4.48	1.58 µM	7.19	2.92 µM	17.6	2.7 µM	14.8	1.38 µM	13
CCN1C/C(=C\c2cc(OC)c(OC)cc2OC)C(=O)/C(=C/c2cc(OC)c(OC)cc2OC)C1	2.48 µM	5.6	1.57 µM	3.04	2.84 µM	8.26	1.85 µM	4.12	1.8 µM	3.9 µM	1.59 µM	3.53	2.29 µM	5.17	3.66 µM	12	2.87 µM	8.09	2.96 µM	> 100
CC(N)C(Cc1ccc(Cl)cc1)c1ccc(Cl)cc1 (centres undefined)	3.86 µM	15.9	8.48 µM	22.6	10.6 µM	26.1	12.5 µM	25.7	7.12 µM	20.9 µM	12.4 µM	25.1	13.8 µM	27.5	4.26 µM	16.8	10.2 µM	24.3	20.3 µM	39
CCN(Cc1ccc(C)cc1)c1ccc(CO)c(Cl)c1	13.3 µM	26.2	14.6 µM	29.6	5.78 µM	35.7	12.7 µM	27.4	3.81 µM	17.7 µM	3.84 µM	17.7	0.605 µM	5.31	12.5 µM	29.6	4.32 µM	19.3	15.9 µM	51.3
CCN1C(=S)N(c2ccccc2)C2NC(=S)N(/N=C/C=C/c3ccccc3OC)C21 (centres undefined)	1.47 µM	> 100	0.323 µM	> 64.8	0.245 µM	0.6	0.356 µM	28.5	0.675 µM	> 100 µM	0.322 µM	3.14	0.267 µM	0.721	0.544 µM	> 27.4	0.639 µM	> 100	0.362 µM	> 100
O=C(Oc1cccc2cccnc12)c1cc2c(cc1Cl)SC(N(c1ccc(F)cc1)S(=O)(=O)c1ccc(Br)s1)=NS2(=O)=O	40.9 µM	> 100	44.2 µM	> 100	26.4 µM	> 100	27.3 µM	> 100	34.2 µM	> 100 µM	18.2 µM	39.8	8.16 µM	66.4	23.6 µM	> 100	> 100 µM	> 100	30.5 µM	> 100
CC(=O)c1ccc2c(c1)c1cc(C(C)=O)ccc1n2CCNC(C)C	0.326 µM	1.47	0.427 µM	3.4	0.362 µM	2.67	0.453 µM	5.42	0.2 µM	0.704 µM	0.291 µM	0.923	0.506 µM	3.91	0.516 µM	3.16	0.456 µM	3.32	0.455 µM	2.65
O=c1[nH]c2ccccc2c2ccccc12	> 100 µM	> 100	> 100 µM	> 100	> 100 µM	> 100	> 100 µM	> 100	70.9 µM	> 100 µM	91.5 µM	> 100	> 100 µM	> 100	> 100 µM	> 100	> 100 µM	> 100	> 100 µM	> 100
O=Nc1ccc(O)c(=O)cc1	2.26 µM	7.02	5.99 µM	16.3	0.547 µM	2.59	3.74 µM	10.8	1.15 µM	2.69 µM	3.63 µM	10.6	1.39 µM	5.07	2.31 µM	8.79	2.18 µM	5.52	0.264 µM	1.19
